± gives the expanded uncertainty stated by the source.
Details: 101.33 kPa, Liquid; for viscosity: Capillary tube (Ostwald / Ubbelohde) method; for mass density: Vibrating tube method
[1] = 298.15 K, automatically measured using an Anton Paar DSA 5000 instrument
[2] = 303.15 K, automatically measured using an Anton Paar DSA 5000 instrument
[3] = 308.15 K, automatically measured using an Anton Paar DSA 5000 instrument

Structure (SMILES)	viscosity (298.15 K)	mass density (298.15 K)	speed of sound [1]	viscosity (303.15 K)	mass density (303.15 K)	speed of sound [2]	viscosity (308.15 K)	mass density (308.15 K)	speed of sound [3]	speed of sound (298.15 K, Pulse-echo method)	speed of sound (303.15 K, Pulse-echo method)	speed of sound (308.15 K, Pulse-echo method)
CC(C)CO [2-methyl-1-propanol]	3.404 ± 0.021 mPa·s	798.52 ± 0.14 kg/m3	1189.6 ± 0.5 m/s	2.695 ± 0.017 mPa·s	794.6 ± 0.14 kg/m3	1172.9 ± 0.5 m/s	2.188 ± 0.014 mPa·s	790.63 ± 0.15 kg/m3	1156.2 ± 0.5 m/s	–	–	–
CC(C)CCCC(C)CCCC(C)CCCCC(C)CCCC(C)CCCC(C)C (configuration not stated) [2,6,10,15,19,23-hexamethyltetracosane]	28.26 ± 0.14 mPa·s	805.122 ± 0.14 kg/m3	1381.9 ± 0.5 m/s	22.09 ± 0.11 mPa·s	801.912 ± 0.14 kg/m3	1364.1 ± 0.5 m/s	17.77 ± 0.09 mPa·s	798.709 ± 0.14 kg/m3	1346.5 ± 0.5 m/s	–	–	–
CCCCCCCCCCCCCCCC [hexadecane]	3.041 ± 0.019 mPa·s	770.456 ± 0.15 kg/m3	–	2.706 ± 0.017 mPa·s	766.981 ± 0.15 kg/m3	–	2.409 ± 0.015 mPa·s	763.52 ± 0.15 kg/m3	–	1338.6 ± 0.8 m/s	1320 ± 0.8 m/s	1301.7 ± 0.8 m/s

Reference: the NIST ThermoML archive (doi:10.1016/j.jct.2009.02.002)
